Data reported in patent publication US9724358B2, “Minocycline compounds and methods of use thereof” (Paratek Pharmaceuticals, Inc., priority 2008, dated 2017).

How the values were obtained:
[1] = test system: complicated skin and skin structure infections (CSSSI); experiment: Phase 2 study in CSSSI, clinical outcome at test of cure; format: in vivo, human
Method: (§1) A randomized (1:1), controlled, evaluator-blinded Phase 2 study comparing 9-[(2,2-dimethyl-propyl amino)-methyl-minocycline (compound 1) and linezolid (Zyvox™) for the treatment of complicated skin and skin structure infections (CSSSI) was conducted. Patients with CSSSI who required initial intravenous (IV) therapy and met inclusion and exclusion criteria were enrolled at 11 centers in the US and were randomized to receive either compound 1 (100 mg Q24 h IV with 200 mg Q24 h oral step-down) or linezolid (600 mg Q12 h IV with 600 mg Q12 h oral step-down).
(§2) All subjects had four structured evaluations: at Enrollment (Baseline); at End of IV Treatment; at End of Treatment; and at 10 to 17 days after last dose of treatment (test of cure (TOC) evaluation). In addition, the blinded investigator saw each subject daily while they were on IV therapy and at least every 3 days while receiving oral treatment to determine whether to continue current treatment, switch from IV to oral therapy, or discontinue treatment.
(§3) At each of the four structured evaluations, the blinded evaluator assessed the subject, with particular attention to scoring the findings at the primary site of infection and obtaining cultures. Clinical and microbiologic outcomes were determined using these assessments. Primary evaluation criteria was safety and tolerability compared with linezolid. Secondary evaluation criteria was efficacy of compound 1 compared to linezolid, as well as pharmacokinetics of compound 1.
At each scheduled evaluation, the blinded evaluator examined the primary site of infection; for patients with multiple non-contiguous areas of infection, the blinded evaluator identified the most severely affected portion at Enrollment and designated that as the primary site of infection. The following information was recorded for each patient: maximal linear dimension of area of continuous involvement of infection; maximal linear dimension of ulceration, if present; semi-qualitative (scale of 0 to 3; none, mild, marked, severe) description of infection for the following features: erythema, edema/induration, fluctuance, necrotic tissue, purulence (including drainage), and tenderness/pain. In addition, at the Enrollment Evaluation, the following were also recorded the anatomical location of the primary site of infection; and the clinical diagnosis of the type of the infection.
Both the investigational drug, compound 1, and the comparator drug, Zyvox™ were administered intravenously and orally. Patients randomized to linezolid may have received aztreonam IV for suspected or documented gram-negative infection. Subjects were initially treated with study drug IV and then switched to oral therapy. The expected duration of IV treatment was up to 7 days; the expected total duration of treatment (IV and oral) was up to 14 days.
For IV administration, the HCl salt of compound 1 for injection was given as 100 mg in 100 ml sterile saline infused over 30 minutes q24 h. For oral administration, compound 1 100 mg capsules were taken fasting as 2 capsules with 8 oz. water q24 h. No food was to be taken for 30 to 60 minutes after dosing and no dairy products for 4 hours.
Linezolid (Zyvox™) 600 mg tablets and pre-mixed 600 mg IV infusion solution (300 ml volume) were obtained from commercial sources. Linezolid 600 mg IV was administered as a 30 minute infusion.
Efficacy analyses were performed on several populations of subjects. Subjects were analyzed for efficacy according to randomization, regardless of treatment administered.
The Intent-to-Treat (ITT) population includes all enrolled subjects who received at least one dose of study medication.
The modified Intent-to-Treat (mITT) population comprises all subjects in the ITT population who have an Infecting Pathogen isolated at prior to administration of the study compound. […]

[2] = test system: MSSA; experiment: Phase 2 CSSSI study, clinical outcome by organism: MSSA; format: in vivo, Staphylococcus aureus
Method: as §1
(§4) An infecting pathogen was defined as an isolate derived from the last positive culture taken from the site of infection under study prior to and including day 1.

[3] = test system: GNR; experiment: Phase 2 CSSSI study, clinical outcome by organism: GNR; format: in vivo, gram-negative rods; details: ME population
Method: as §1, §4

[4] = Phase 2 CSSSI study, safety: ALT level; format: in vivo, human
Method: as §1, §3

[5] = Phase 2 CSSSI study, subject disposition (discontinuations); format: in vivo, human; details: ITT population
Method: as §1, §2

[6] = clinically evaluable population
[7] = microbiologically evaluable population
[8] = EOT, ALT abnormal at enrollment
[9] = EOT, ALT within normal limits at enrollment
[10] = TOC, ALT abnormal at enrollment
[11] = TOC, ALT within normal limits at enrollment
[12] = max on treatment, ALT abnormal at enrollment
[13] = max on treatment, ALT within normal limits at enrollment

CN(C)c1cc(CNCC(C)(C)C)c(O)c2c1C[C@H]1C[C@H]3[C@H](N(C)C)C(O)=C(C(N)=O)C(=O)[C@@]3(O)C(O)=C1C2=O [Compound 1, 9-[(2,2-dimethyl-propylamino)-methyl]-minocycline]
Clinical Failure (% of subjects) ([1]; ITT population): (11.7%)
Clinical Failure (number of subjects) ([1]; ITT population): 13
Clinical Failure: Failure (% of subjects) ([1]; ITT population): (1.8%)
Clinical Failure: Failure (number of subjects) ([1]; ITT population): 2
Clinical Failure: Nonevaluable (% of subjects) ([1]; ITT population): (9.9%)
Clinical Failure: Nonevaluable (number of subjects) ([1]; ITT population): 11
Clinical Success (% of subjects) ([1]; ITT population): (88.3%)
Clinical Success (number of subjects) ([1]; ITT population): 98
Clinical Success (% of subjects) ([1]; ITT population, listed as compound 1): 88.3%
Clinical Failure (% of subjects) [1, 6]: 2.0%
Clinical Failure (number of subjects) [1, 6]: 2
Clinical Success (% of subjects) [1, 6]: 98.0%
Clinical Success (number of subjects) [1, 6]: 98
Clinical Success (% of subjects) ([1]; clinically evaluable population, listed as compound 1): 98%
Clinical Failure (% of subjects) ([1]; mITT population): (10.7%)
Clinical Failure (number of subjects) ([1]; mITT population): 9
Clinical Failure: Failure (% of subjects) ([1]; mITT population): (2.4%)
Clinical Failure: Failure (number of subjects) ([1]; mITT population): 2
Clinical Failure: Nonevaluable (% of subjects) ([1]; mITT population): (8.3%)
Clinical Failure: Nonevaluable (number of subjects) ([1]; mITT population): 7
Clinical Success (% of subjects) ([1]; mITT population): (89.3%)
Clinical Success (number of subjects) ([1]; mITT population): 75
Clinical Failure (% of subjects) [1, 7]: 2.6%
Clinical Failure (number of subjects) [1, 7]: 2
Clinical Success (% of subjects) [1, 7]: 97.4%
Clinical Success (number of subjects) [1, 7]: 75
Clinical outcome Failure (number) ([2]; ME population, MSSA): 2
Clinical outcome Success (number) ([2]; ME population, MSSA): 27
clinical success rate against MSSA ([2]; as determined in the trials of the Exemplification): 93%
Clinical outcome Failure (number) [3]: 2
Clinical outcome Success (number) [3]: 7
ALT Increase: >2x ULN and 2x baseline (number) [4, 8]: 0
ALT NS: >ULN and <2x baseline (%) [4, 8]: 84.6%
ALT NS: >ULN and <2x baseline (number) [4, 8]: 11
ALT Within normal limits (%) [4, 8]: 15.4%
ALT Within normal limits (number) [4, 8]: 2
ALT 1x-2x (%) [4, 9]: 6.5%
ALT 1x-2x (number) [4, 9]: 6
ALT 2x-3x (number) [4, 9]: 0
ALT >3x (number) [4, 9]: 0
ALT Within normal limits (%) [4, 9]: 93.5%
ALT Within normal limits (number) [4, 9]: 86
ALT Increase: >2x ULN and 2x baseline (%) [4, 10]: (7.7%)
ALT Increase: >2x ULN and 2x baseline (number) [4, 10]: 1
ALT NS: >ULN and <2x baseline (%) [4, 10]: (69.2%)
ALT NS: >ULN and <2x baseline (number) [4, 10]: 9
ALT Within normal limits (%) [4, 10]: (23.1%)
ALT Within normal limits (number) [4, 10]: 3
ALT 1x-2x (%) [4, 11]: (5.6%)
ALT 1x-2x (number) [4, 11]: 5
ALT 2x-3x (number) [4, 11]: 0
ALT >3x (number) [4, 11]: 0
ALT Within normal limits (%) [4, 11]: (94.4%)
ALT Within normal limits (number) [4, 11]: 85
ALT Increase: >2x ULN and 2x baseline (%) [4, 12]: (14.3%)
ALT Increase: >2x ULN and 2x baseline (number) [4, 12]: 2
ALT NS: >ULN and <2x baseline (%) [4, 12]: (78.6%)
ALT NS: >ULN and <2x baseline (number) [4, 12]: 11
ALT Within normal limits (%) [4, 12]: (7.1%)
ALT Within normal limits (number) [4, 12]: 1
ALT 1x-2x (%) [4, 13]: (12.4%)
ALT 1x-2x (number) [4, 13]: 12
ALT 2x-3x (number) [4, 13]: 0
ALT >3x (%) [4, 13]: (1.0%)
ALT >3x (number) [4, 13]: 1
ALT Within normal limits (%) [4, 13]: (86.6%)
ALT Within normal limits (number) [4, 13]: 84
Premature Discontinuation (% of subjects) [5]: (4.5%)
Premature Discontinuation (number of subjects) [5]: 5
Premature Discontinuation due to Adverse Event (% of subjects) [5]: (0.9%)
Premature Discontinuation due to Adverse Event (number of subjects) [5]: 1
Premature Discontinuation due to Treatment Failure (% of subjects) [5]: (0.9%)
Premature Discontinuation due to Treatment Failure (number of subjects) [5]: 1
Premature Discontinuation due to Adverse Event (number of subjects) ([5]; listed as compound 1): no discontinuations
